Reference: US10253368B2, “Molecular signatures of ovarian cancer” (Cedars-Sinai Medical Center, priority 2012, dated 2019)

Tests used:
TGFβ = details: mouse xenografts; cited from earlier work
[1] = system: ovarian stromal cell line TRS3; assay: TGFβ1 induction of the 10 poor outcome signature genes (mRNA) in TRS3 cells; type: cell-based, human
From the text: FIG. 13(A) to FIG. 13(C). Regulation of the poor outcome signature genes by TGFβ signaling. (A) Ingenuity Pathway Analysis of the 61 genes present in at least two of the three discovery signatures of poor outcome. Genes that are present in all three discovery signatures are circled in red. (B) Top upstream regulators of the 61 poor outcome genes. (C) Induction of the 10 poor outcome signature genes by TGFβ1 in the ovarian stromal cell line TRS3 and the ovarian cancer cell line OVCAR3. Cells were treated with TGFβ1 (10 ng/ml) for 48 hours (TRS3) or 1-3 hours (OVCAR3) with or without pre-treatment with the TGFβ1 receptor inhibitor, A83-01. Shown is the relative fold change of the mRNA levels compared to untreated control cells. […]
(§1) To validate the predicted regulation of the poor outcome genes by TGFβ1, the Inventors treated the human ovarian stromal cell line TRS3 and the ovarian cancer cell line OVCAR3 with TGFβ1 and measured mRNA expression of the 10 poor outcome genes before and after TGFβ1 treatment.
(§2) Importantly, The Inventors included the ovarian stromal cell line since many of our poor outcome genes are thought to be expressed in stromal cells. […] To further validate that this induction was mediated by TGFβ1 signaling, the Inventors measured expression of the 10 genes in cells pre-treated with the TGFβ1 receptor inhibitor A83-01 before adding TGFβ1.

[2] = system: ovarian cancer cell line OVCAR3; assay: TGFβ1 induction of the 10 poor outcome signature genes (mRNA) in OVCAR3 cells; type: cell-based, human
From the text: FIG. 13(A) to FIG. 13(C). Regulation of the poor outcome signature genes by TGFβ signaling. (A) Ingenuity Pathway Analysis of the 61 genes present in at least two of the three discovery signatures of poor outcome. Genes that are present in all three discovery signatures are circled in red. (B) Top upstream regulators of the 61 poor outcome genes. (C) Induction of the 10 poor outcome signature genes by TGFβ1 in the ovarian stromal cell line TRS3 and the ovarian cancer cell line OVCAR3. Cells were treated with TGFβ1 (10 ng/ml) for 48 hours (TRS3) or 1-3 hours (OVCAR3) with or without pre-treatment with the TGFβ1 receptor inhibitor, A83-01. Shown is the relative fold change of the mRNA levels compared to untreated control cells. Data are presented as the mean+/−SEM in triplicate samples. * indicates P<0.05. Data are representative of at least three independent experiments.
FIG. 26. Induction of the 10 poor outcome signature genes by TGFβ1. OVCAR3 (OV3) cells were treated with 10 ng/ml TGFβ1 (B1) for either 1 hour or 3 hours with (OV3+B1+A) or without (OV3+B1) pre-treatment with the TGFβ inhibitor, A83-01.
as §1, §2
To learn more about the possible upstream regulators of the signature genes, the Inventors applied Ingenuity Pathway Analysis to the 61 signature genes in FIG. 12A and identified TGFβ1, TGFβ2, TGFβ3, SMAD3, and SMAD7 as top transcription factors regulating in expression of the signature genes.

[3] = system: ADAM12 mRNA in TRS3 cells; assay: Quantitative real-time PCR of ADAM12 mRNA in TRS3 cells with recombinant TGFβ1; type: cell-based, human; details: recombinant TGFβ1 10 ng/ml, 48 hours
From the text: FIG. 37(A) to FIG. 37(C). ADAM12 expression in epithelial and stromal cells in patient tumors and different culture conditions. (A) Representative localization of ADAM12 protein (immunohistochemistry; brown staining) and mRNA (in situ hybridization; brown dots) in ovarian tumor sections from HGSOC patients. Size bar for both photographs=50 μm. (B) and (C) Quantitative real-time PCR of the ADAM12 mRNA in the TRS3 ovarian stromal cell line and OVCAR3 ovarian cancer cell line alone or in co-culture in the presence or absence of 10 ng/ml of recombinant TGFβ1. TRS3 stromal cells and GFP-labelled OVCAR3 cancer cells were co-cultured using an insert (insert) or in direct contact (direct) for 48 hours and sorted by FACS before RNA isolation. The top cell line on the x axis represents the cell line from which RNA was isolated. The y axis indicates 2^−ΔCt value. Data indicates mean+/−SEM.
The OVCAR3 ovarian cancer cell line was obtained from Dennis Slamon (University of California, Los Angeles) and its authenticity was confirmed by Laragen using the short tandem repeat (STR) method. […]
Total RNA was extracted using the RNeasy mini kit (Qiagen) and was reverse-transcribed to cDNA using the QuantiTect Reverse Transcription Kit (Qiagen). […] The qRT-PCR reaction was performed using an iCycler thermo cycler (Bio Rad) and the data were analyzed by the 2-ΔCT method. […]

osteosarcoma = details: mouse model of osteosarcoma; cited from earlier work
LOX = details: xenograft and transgenic mouse models; cited from earlier work
[4] = pre-treatment before TGFβ1 10 ng/ml

Compound: Cc1cccc(-c2nn(C(=S)Nc3ccccc3)cc2-c2ccnc3ccccc23)n1 [A83-01, reference compound]
- Tumor growth (TGFβ): reduce tumor growth
- TGFβ1-induced expression of the 10 genes in cells pre-treated with inhibitor [1, 4]: abrogated
- TGFβ1-induced expression of the 10 genes in cells pre-treated with inhibitor [2, 4]: abrogated

Compound: TGFβ1: recombinant TGFβ1 (Sigma), growth factor used at 10 ng/ml
- Increase of ADAM12 levels in TRS3 cells [3]: approximately 10 fold
- mRNA expression of the 10 poor outcome genes after TGFβ1 treatment ([1]; TGFβ1 10 ng/ml, 48 hours, most of the 10 genes): induced
- mRNA expression of the 10 poor outcome genes after TGFβ1 treatment ([2]; TGFβ1 10 ng/ml, 1-3 hours, most of the 10 genes): induced
- Expression of COL5A1 and SNAI2 ([2]; after 1 hour of treatment with TGFβ1): markedly induced
- Expression of the remaining 8 genes ([2]; after 3 hours of treatment with TGFβ1): induced

Compound: collagenase
- Uptake and distribution of monoclonal antibodies (osteosarcoma): increased

Compound: N#CCCN [β-aminopropionitrile]
- Tumor metastasis (LOX): inhibited
